# In patent publication US20100249223A1, “NEW USE FOR CANNABINOID-CONTAINING PLANT EXTRACTS” (priority 2007, published 2010):
# Like-named read-outs stand apart in the source and are kept apart here.
# Key:
# TRPA1 channel = target: T1, TRPA1 channel (Rattus norvegicus, UniProt Q6RI86); experiment: Intracellular Ca2+ elevation in HEK-293 cells over-expressing rat TRPA1; format: cell-based
# T1 construct: expressed in transfected cells
# Method: (§1) The applicants have conducted experiments using cannabinoid-containing plant extracts on rat recombinant TRPV1, TRPM8 channels and TRPA1 (also known as ANKTM1) channels, both were stably expressed in HEK293 cells. […] The TRPM8 channel is the receptor from menthol and icilin. The intracellular Ca^2+ concentration was determined before and after the addition of various concentrations of test compounds.
# (§2) For the experiments with the TRPM8 channels menthol and icilin were used to activate the channels. For the experiments with the TRPV1 channels ionomycin was used to activate the channels. The cannabinoid-containing plant extracts were produced from cannabis plants using the subcritical CO2 extraction technique as described in the applicants granted United Kingdom patent GB2391865. The cannabinoids were then purified further using the method disclosed in the applicants granted United Kingdom patent GB2393721 to produce substantially pure cannabinoids. Un-purified plant extracts of THC and CBD were also tested in the experiments with the TRPA1 channels.
# (§3) HEK293 (human embryonic kidney) cells were plated on 100 mm diameter Petri dishes and transfected at about 80% confluence with Lipofectamine 2000 (Invitrogen) using a plasmid containing the rat TRPA1, TRPV1 or TRPM8 cDNA, according to the manufacturer's protocol. A stably transfected clone was selected by Geneticin G-418 (Invitrogen) 600 μg/ml. Stable transfection was checked by quantitative real time-PCR (RT-PCR).
# (§4) TRPA/TRPV1/TRPM8-HEK-293 cells were plated on 100 mm diameter Petri dishes and after 3 days loaded for 1 hour at room temperature with the cytoplasmic calcium indicator Fluo-4-AM (4 μM, Molecular Probes) dissolved in Tyrode' buffer (NaCl 145 mM; KCl 2.5 mM; CaCl2 1.5 mM; MgCl2 1.2 mM; D-Glucose 10 mM; HEPES 10 mM pH 7.4) containing Pluronic (0.02%, Molecular Probes). The cells were washed twice in Tyrode buffer, resuspended and transferred to the quartz cuvette of the spectrofluorimeter (Perkin-Elmer LS 50B) (λ excitation=488 nm; λ emission=516 nm). Intracellular Ca^2+ concentration was determined before and after the addition of various concentrations of test compounds. EC50 values were determined as the concentration of test substances required to produce half-maximal increases in intracellular Ca^2+ concentration. Curve fitting and parameter estimation was performed with Graph Pad Prism®. The same compounds were tested also on non-transfected HEK 293 cells.
# TRPV1 channel = target: T2, TRPV1 channel (Rattus norvegicus, UniProt O35433); experiment: Intracellular Ca2+ elevation in HEK-293 cells over-expressing rat TRPV1; format: cell-based; conditions: for Emax: HEK293, read-out: Maximal response (% ionomycin)
# T2 construct: expressed in transfected cells
# Method: as §1, §2, §3, §4
# [1] = HEK293, TRPA1-HEK-293 cells, relative to mustard oil 100 μM, read-out: Maximal response (% of mustard oil 100 μM)
# [2] = TRPA1-HEK-293 cells, Fluo-4, read-out: -logEC50% (M) for the elevation of [Ca2+]i (converted)
# [3] = TRPA1, summary of Table 1, read-out: EC50 values (range given)
# T2 sequence (O35433 whole entry): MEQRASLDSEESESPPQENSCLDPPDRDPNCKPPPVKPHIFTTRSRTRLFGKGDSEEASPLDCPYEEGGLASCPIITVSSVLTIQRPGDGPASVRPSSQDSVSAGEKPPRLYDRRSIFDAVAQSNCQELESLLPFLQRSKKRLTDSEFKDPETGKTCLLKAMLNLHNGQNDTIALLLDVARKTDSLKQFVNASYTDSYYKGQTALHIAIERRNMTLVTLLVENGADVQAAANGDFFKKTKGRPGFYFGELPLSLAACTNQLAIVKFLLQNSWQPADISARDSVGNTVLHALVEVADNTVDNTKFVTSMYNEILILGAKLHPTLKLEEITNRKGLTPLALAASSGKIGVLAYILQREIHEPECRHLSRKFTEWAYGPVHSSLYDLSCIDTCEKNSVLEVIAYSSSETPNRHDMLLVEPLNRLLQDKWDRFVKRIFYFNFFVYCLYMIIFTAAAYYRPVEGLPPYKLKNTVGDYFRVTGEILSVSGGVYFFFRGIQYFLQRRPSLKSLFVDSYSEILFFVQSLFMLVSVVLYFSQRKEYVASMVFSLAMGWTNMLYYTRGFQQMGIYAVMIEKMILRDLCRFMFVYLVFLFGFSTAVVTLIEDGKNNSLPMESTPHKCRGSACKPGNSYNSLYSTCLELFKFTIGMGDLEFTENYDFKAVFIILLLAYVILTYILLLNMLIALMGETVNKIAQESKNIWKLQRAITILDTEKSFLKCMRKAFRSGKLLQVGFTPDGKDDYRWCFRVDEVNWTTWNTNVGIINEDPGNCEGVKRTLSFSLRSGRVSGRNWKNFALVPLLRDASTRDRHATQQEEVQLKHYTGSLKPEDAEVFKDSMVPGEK
# T1 sequence (Q6RI86 whole entry): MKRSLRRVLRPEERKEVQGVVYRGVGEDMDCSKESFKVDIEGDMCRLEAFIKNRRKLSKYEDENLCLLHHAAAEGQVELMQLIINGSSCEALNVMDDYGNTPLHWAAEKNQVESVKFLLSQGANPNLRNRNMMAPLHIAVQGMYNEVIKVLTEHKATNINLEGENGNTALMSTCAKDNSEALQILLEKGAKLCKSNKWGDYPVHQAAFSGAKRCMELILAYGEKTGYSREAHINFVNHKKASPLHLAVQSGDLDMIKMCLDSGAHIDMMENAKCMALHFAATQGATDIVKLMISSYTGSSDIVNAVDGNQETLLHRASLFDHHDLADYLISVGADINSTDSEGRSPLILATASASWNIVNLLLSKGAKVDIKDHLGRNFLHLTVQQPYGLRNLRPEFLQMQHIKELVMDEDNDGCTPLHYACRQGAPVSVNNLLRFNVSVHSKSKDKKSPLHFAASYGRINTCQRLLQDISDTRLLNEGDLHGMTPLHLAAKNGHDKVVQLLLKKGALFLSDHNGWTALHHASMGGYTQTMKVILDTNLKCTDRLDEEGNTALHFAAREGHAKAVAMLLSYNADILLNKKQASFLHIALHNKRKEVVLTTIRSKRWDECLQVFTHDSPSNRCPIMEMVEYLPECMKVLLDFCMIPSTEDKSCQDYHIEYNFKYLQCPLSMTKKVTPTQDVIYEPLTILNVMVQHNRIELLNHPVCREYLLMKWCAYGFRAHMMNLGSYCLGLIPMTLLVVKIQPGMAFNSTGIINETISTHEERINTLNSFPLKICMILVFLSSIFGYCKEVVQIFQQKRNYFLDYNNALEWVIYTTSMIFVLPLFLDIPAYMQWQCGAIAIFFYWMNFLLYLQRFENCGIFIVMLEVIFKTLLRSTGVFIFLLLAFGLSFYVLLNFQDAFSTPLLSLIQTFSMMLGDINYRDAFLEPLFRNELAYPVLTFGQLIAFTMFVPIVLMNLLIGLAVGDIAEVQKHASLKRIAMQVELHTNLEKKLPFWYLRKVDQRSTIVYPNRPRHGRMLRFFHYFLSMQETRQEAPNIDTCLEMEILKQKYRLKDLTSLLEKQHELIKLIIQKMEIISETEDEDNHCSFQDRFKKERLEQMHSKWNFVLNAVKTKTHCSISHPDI
Structure (SMILES),Emax (TRPA1 channel; [1]),EC50 (TRPA1 channel; [2]),EC50 (TRPV1 channel),Emax (TRPV1 channel),other results
"CCCCCc1cc(O)c2c(c1)OC(C)(C)[C@@H]1CCC(C)=C[C@@H]21 [THC, tetrahydrocannabinol]",117 ± 12%,1.86e-07 M,–,–,–
"C=C(C)[C@@H]1CCC(C)=C[C@H]1c1c(O)cc(CCC)cc1O [CBDV, cannabidivarin]",–,–,1.4 µM,19.8 ± 1.9%,–
"C=C(C)[C@@H]1CCC(C)=C[C@H]1c1c(O)cc(CCCCC)cc1O [CBD, cannabidiol]",86.9 ± 8%,8.51e-08 M,0.7 µM,50 ± 1%,EC50 (TRPA1 channel; [3]): 6e-08 to 1e-07 M
"C=C(C)[C@@H]1CCC(C)=C[C@H]1c1c(O)cc(CCCCC)c(C(=O)O)c1O [CBDA, cannabidiolic acid]",48.2 ± 6%,8.13e-07 M,–,–,–
"CCCCCc1cc(O)c(C/C=C(\C)CCC=C(C)C)c(O)c1 [CBG, cannabigerol]",–,–,1 µM,54.4 ± 5.4%,–
"O=CC=Cc1ccccc1 [Cinnamaldehyde, cinnamaldehyde, reference compound]",99.1 ± 9%,1.29e-05 M,–,–,–
"COc1cc(CNC(=O)CCCC/C=C/C(C)C)ccc1O [Capsaicin, reference compound]",–,–,–,68.6 ± 1.2%,–
"C=CCN=C=S [Mustard oil (allyl isothiocyanate), allyl isothiocyanate, reference compound]",–,–,–,–,Emax at 100 µM (TRPA1 channel; [1]): 100 ± 11%
"CCCCCc1cc(O)c2c(c1)OC(C)(CCC=C(C)C)C=C2 (centres unmarked) [CBC, cannabichromene]",118 ± 10%,3.31e-08 M,24.2 µM,9 ± 4.9%,EC50 (TRPA1 channel; [3]): 6e-08 to 1e-07 M
"CCCCCc1cc2c(c(O)c1C(=O)O)[C@@H]1C=C(C)CC[C@H]1C(C)(C)O2 [THCA, tetrahydrocannabinolic acid]",–,–,–,–,"Maximal response (% of mustard oil 100 μM) (TRPA1 channel; TRPA1-HEK-293 cells, relative to mustard oil 100 μM): 70.1 ± 8%"
